Experimental data published in patent US20200093795A1 (Secura Bio, Inc., priority 2015, published 2020).

Key:
[1] = system: patients with relapsed multiple myeloma; assay: Randomized, double-blind, placebo-controlled, multicenter study (PANORAMA-1) of panobinostat plus bortezomib and dexamethasone; format: in vivo
Procedure: Treatment was administered for a maximum of 16 cycles (48 weeks).
Demographics and baseline disease characteristics were balanced between arms. The median age was 63 years (range 28 to 84); 42% of patients were older than 65 years; 53% of patients were male. The ECOG (Eastern Cooperative Oncology Group) performance status was 0 to 1 in 93% of patients. The median number of prior therapies was 1; 48% of patients received 2 or 3 prior lines of therapy. More than half (57%) of the patients had prior stem cell transplantation. The most common prior antineoplastic therapies were corticosteroids (90%), melphalan (80%), thalidomide (53%), cyclophosphamide (47%), bortezomib (44%), and lenalidomide (19%). The median duration of follow-up was 29 months in both arms.
The primary endpoint was progression-free survival (PFS), using modified European Bone Marrow Transplant Group (EBMT) criteria, as assessed by the investigators. […] The efficacy and safety in a subgroup analysis of 193 patients who had received prior treatment with both bortezomib and an immunomodulatory agent and a median of 2 prior therapies as the benefit: risk appeared to be greater in this more heavily pretreated population than in the overall trial population. Of these 193 patients, 76% of them had received ≥2 prior lines of therapy.

[2] = system: cardiac ventricular repolarization (QT interval); assay: Pooled clinical data from over 500 patients treated with single agent panobinostat: QTc prolongation; format: in vivo, human
Excerpt: Panobinostat may prolong cardiac ventricular repolarization (QT interval).

Cc1[nH]c2ccccc2c1CCNCc1ccc(/C=C/C(=O)NO)cc1 [panobinostat]
serious toxicities observed ([1]; PANORAMA clinical study, patients receiving panobinostat): severe and fatal ischemic events, severe arrhythmias and ECG changes | gastrointestinal toxicity ([1]; in vivo): common | incidence of CTC Grade 3 QTc prolongation (QTcF >500 msec) ([2]; at a dose of 60 mg or higher): ≥ 5% | incidence of CTC Grade 3 QTc prolongation (QTcF >500 msec) ([2]; multiple indications, different dose levels, overall): approximately 1%
